Results taken from ChEMBL document CHEMBL3407453, “LEADOPT: an automatic tool for structure-based lead optimization, and its application in structural optimizations of VEGFR2 and SYK inhibitors” (Eur J Med Chem, 2015).
Blank lines part the entries; values can stand above or below the compound they belong to. Calls of active or inactive are those of the source. The calls are words filed in the database; no cut-off is given here.

Tests used:
[1] = molecular target: T1, Tyrosine-protein kinase SYK (Homo sapiens, UniProt P43405); test: Inhibition of SYK (unknown origin)
[2] = tested on: HUVEC; test: Antiangiogenic activity in HUVEC cells assessed as inhibition of cell migration at 5 uM after 18 hrs by wound healing assay; assay type: functional, cell-based; details: Homo sapiens
[3] = molecular target: T2, Vascular endothelial growth factor receptor 2 (Homo sapiens, UniProt P35968); test: Inhibition of VEGFR2 (unknown origin) by [33P]radiolabeled method
[4] = tested on: MV4-11; test: Cytotoxicity against human MV4-11 cells assessed as reduction in cell viability after 72 hrs by MTT assay; assay type: functional, cell-based; details: MV4-11, 72 h
[5] = molecular target: T1, Tyrosine-protein kinase SYK; test: Inhibition of SYK-mediated ERK1/2 phosphorylation in human MV4-11 cells at 0.01 to 1 uM after 6 hrs by Western blot analysis; assay type: cell-based
[6] = molecular target: T1, Tyrosine-protein kinase SYK; test: Inhibition of SYK-mediated FLT3 phosphorylation in human MV4-11 cells at 0.01 to 1 uM after 6 hrs by Western blot analysis; assay type: cell-based
[7] = tested on: Ramos; test: Cytotoxicity against human Ramos cells assessed as reduction in cell viability after 72 hrs by MTT assay; assay type: functional, cell-based
[8] = tested on: HUVEC; test: Antiangiogenic activity in HUVEC cells assessed as inhibition of cell migration after 18 hrs by wound healing assay; assay type: functional, cell-based; details: Homo sapiens
[9] = molecular target: T2, Vascular endothelial growth factor receptor 2; details: HUVEC, at 0.01 to 10 µM
Description: Inhibition of VEGFR2 phosphorylation in VEGF-stimulated HUVEC cells at 0.01 to 10 uM after 2 hrs by Western blot analysis

[10] = molecular target: T2, Vascular endothelial growth factor receptor 2; test: Inhibition of VEGFR2-mediated ERK1/2 phosphorylation in VEGF-stimulated HUVEC cells at 0.01 to 10 uM after 2 hrs by Western blot analysis; assay type: cell-based

T2 sequence (P35968 whole entry): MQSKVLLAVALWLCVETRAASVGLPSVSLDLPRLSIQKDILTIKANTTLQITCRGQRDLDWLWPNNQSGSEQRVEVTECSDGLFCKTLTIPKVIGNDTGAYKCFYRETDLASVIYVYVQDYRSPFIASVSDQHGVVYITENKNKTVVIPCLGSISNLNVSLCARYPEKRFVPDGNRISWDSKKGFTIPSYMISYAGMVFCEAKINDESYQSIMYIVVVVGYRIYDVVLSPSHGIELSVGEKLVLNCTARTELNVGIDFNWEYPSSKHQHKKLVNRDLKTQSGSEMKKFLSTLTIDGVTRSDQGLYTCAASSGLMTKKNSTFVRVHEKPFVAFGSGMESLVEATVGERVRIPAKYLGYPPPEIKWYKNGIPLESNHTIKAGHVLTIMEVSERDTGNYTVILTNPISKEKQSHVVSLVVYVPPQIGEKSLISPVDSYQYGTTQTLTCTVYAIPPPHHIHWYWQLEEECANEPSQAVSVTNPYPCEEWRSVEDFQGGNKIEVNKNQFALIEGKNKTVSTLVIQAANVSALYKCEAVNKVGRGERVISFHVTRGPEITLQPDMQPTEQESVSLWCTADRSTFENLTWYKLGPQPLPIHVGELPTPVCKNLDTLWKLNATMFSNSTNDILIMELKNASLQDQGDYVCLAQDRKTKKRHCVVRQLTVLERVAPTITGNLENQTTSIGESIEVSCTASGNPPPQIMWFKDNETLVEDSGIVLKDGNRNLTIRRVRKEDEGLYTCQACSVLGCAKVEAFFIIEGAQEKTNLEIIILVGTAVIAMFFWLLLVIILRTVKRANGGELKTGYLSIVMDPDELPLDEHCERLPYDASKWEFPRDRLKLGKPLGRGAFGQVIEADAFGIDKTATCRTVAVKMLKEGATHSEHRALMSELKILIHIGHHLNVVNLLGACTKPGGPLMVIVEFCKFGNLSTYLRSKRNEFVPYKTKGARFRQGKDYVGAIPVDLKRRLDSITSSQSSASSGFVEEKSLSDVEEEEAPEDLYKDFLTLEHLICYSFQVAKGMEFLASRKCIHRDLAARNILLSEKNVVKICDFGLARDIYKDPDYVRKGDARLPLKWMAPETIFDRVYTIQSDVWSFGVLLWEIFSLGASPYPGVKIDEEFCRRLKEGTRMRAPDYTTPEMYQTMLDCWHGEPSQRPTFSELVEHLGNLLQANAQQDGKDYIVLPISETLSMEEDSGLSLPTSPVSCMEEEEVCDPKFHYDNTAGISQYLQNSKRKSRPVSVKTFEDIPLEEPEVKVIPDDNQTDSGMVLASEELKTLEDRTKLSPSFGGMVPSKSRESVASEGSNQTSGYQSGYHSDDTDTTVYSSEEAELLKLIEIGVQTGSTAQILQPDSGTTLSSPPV

SMILES: COc1cc(Nc2ncc(F)c(Nc3ccc4nc(C)cc(N)c4c3)n2)cc(OC)c1OC
IC50 [1]: 2.96 µM

SMILES: CNC(=O)c1cc(Oc2ccc(NC(=O)Nc3ccc(Cl)c(C(F)(F)F)c3)cc2)ccn1
inhibition [2]: Active

SMILES: Cc1cc(N)c2cc(Nc3nc(Nc4ccc(N5CCN(C)CC5)cc4)ncc3F)ccc2n1
IC50 [1]: 0.013 µM
IC50 [4]: 0.003 µM
inhibition [5]: Active
inhibition [6]: Active
IC50 [7]: 0.51 µM

SMILES: COc1cc(Nc2ncc(F)c(Nc3cc(Cl)ccc3C(N)=O)n2)cc(OC)c1OC
IC50 [1]: 0.326 µM

SMILES: COc1cc(Nc2ncc(F)c(Nc3cccc(C(N)=O)c3)n2)cc(OC)c1OC
IC50 [1]: 1.13 µM

Second part, led by results:

IC50 [3]: 0.119 µM
SMILES: O=C(Nc1ccc(Oc2ccnc3ccccc23)cc1)Nc1ccc(Cl)c(C(F)(F)F)c1

IC50 [3]: 0.023 µM
SMILES: Nc1nccc(Oc2ccc(NC(=O)Nc3ccc(Cl)c(C(F)(F)F)c3)cc2)n1

IC50 [3]: 0.017 µM
inhibition [9]: Active
inhibition [10]: Active
SMILES: CNC(=O)c1cc(Oc2ccc(NC(=O)Nc3cc(C(C)(C)C)on3)cc2)ccn1
inhibition [8]: Dose-dependent effect
inhibition [2]: Active

IC50 [3]: 0.036 µM
SMILES: CNC(=O)c1nccc(Oc2ccc(NC(=O)Nc3nc4ccccc4s3)cc2)n1

IC50 [3]: 0.214 µM
SMILES: N#Cc1cc(Oc2ccc(NC(=O)Nc3ccc(Cl)c(C(F)(F)F)c3)cc2)ccn1

IC50 [3]: 0.12 µM
SMILES: Nc1nccc(Oc2ccc(NC(=O)Nc3nc4ccccc4s3)cc2)n1
